According to ChEMBL document CHEMBL3885881, “DrugMatrix”:

Species: Rattus norvegicus
Experiment: DrugMatrix - Regimen: Daily Repeat
Format: toxicity, organism-based, Sprague-Dawley
Set-up: regimen Daily Repeat, gender Male, age 6-8 weeks
Settings: in vivo, po, route oral GAVAGE, […]; for ABSOLUTE BASOPHIL / ABSOLUTE EOSINOPHIL / ABSOLUTE LYMPHOCYTE / ABSOLUTE MONOCYTE / ABSOLUTE SEGMENTED NEUTROPHIL / BASOPHIL / EOSINOPHIL / ERYTHROCYTE COUNT / HEMATOCRIT / HEMOGLOBIN / LEUKOCYTE COUNT / LYMPHOCYTE / MEAN CORPUSCULAR HEMOGLOBIN / MEAN CORPUSCULAR HEMOGLOBIN CONCENTRATION / MEAN CORPUSCULAR VOLUME / MONOCYTE / NEUTROPHIL / NUCLEATED RED BLOOD CELLS / PLATELET COUNT: tissue Blood; for ALANINE AMINOTRANSFERASE / ALBUMIN / ALKALINE PHOSPHATASE / ASPARTATE AMINOTRANSFERASE / BLOOD UREA NITROGEN / CARBON DIOXIDE / CHLORIDE / CHOLESTEROL / CREATINE PHOSPHOKINASE / CREATININE / GLUCOSE / LACTATE DEHYDROGENASE / LIPASE / PHOSPHORUS / POTASSIUM / SODIUM / TOTAL BILIRUBIN / TOTAL PROTEIN / URIC ACID: tissue Plasma
[1] = 10 mg/kg, 120 h, dose level Low, time 5 day
[2] = 92 mg/kg, 72 h, dose level High, time 3 day
[3] = 92 mg/kg, 120 h, dose level High, time 5 day

c1ccc2[nH]c(-c3cscn3)nc2c1 [THIABENDAZOLE]
ABSOLUTE BASOPHIL [1]: 0 CELLS/uL | ABSOLUTE EOSINOPHIL [1]: 61 CELLS/uL | ABSOLUTE LYMPHOCYTE [1]: 15391 CELLS/uL | ABSOLUTE MONOCYTE [1]: 225.67 CELLS/uL | ABSOLUTE SEGMENTED NEUTROPHIL [1]: 1089 CELLS/uL | BASOPHIL [1]: 0% | EOSINOPHIL [1]: 0.33% | ERYTHROCYTE COUNT [1]: 6.11 x10E6/uL | HEMATOCRIT [1]: 37.8% | HEMOGLOBIN [1]: 14.63 G/DL | LEUKOCYTE COUNT [1]: 16.77 x10E3/uL | LYMPHOCYTE [1]: 92% | MEAN CORPUSCULAR HEMOGLOBIN [1]: 23.97 pg | MEAN CORPUSCULAR HEMOGLOBIN CONCENTRATION [1]: 38.7 G/DL | MEAN CORPUSCULAR VOLUME [1]: 61.9 fL | MONOCYTE [1]: 1.33% | NEUTROPHIL [1]: 6.33% | NUCLEATED RED BLOOD CELLS [1]: 0 /100WBC | PLATELET COUNT [1]: 1202.33 x10E3/uL | ALANINE AMINOTRANSFERASE [1]: 79.33 u/L | ALBUMIN [1]: 4 G/DL | ALKALINE PHOSPHATASE [1]: 420.33 u/L | ASPARTATE AMINOTRANSFERASE [1]: 82.33 u/L | BLOOD UREA NITROGEN [1]: 12.33 mg/dL | CARBON DIOXIDE [1]: 30.67 mmol/L | CHLORIDE [1]: 100.67 MEQ/L | CHOLESTEROL [1]: 66.33 mg/dL | CREATINE PHOSPHOKINASE [1]: 192 u/L | CREATININE [1]: 0.19 mg/dL | GLUCOSE [1]: 163.67 mg/dL | LACTATE DEHYDROGENASE [1]: 183 u/L | LIPASE [1]: 10.33 u/L | PHOSPHORUS [1]: 11.47 mg/dL | POTASSIUM [1]: 6.52 MEQ/L | SODIUM [1]: 143.07 MEQ/L | TOTAL BILIRUBIN [1]: 0.13 mg/dL | TOTAL PROTEIN [1]: 5.6 G/DL | URIC ACID [1]: 1.87 mg/dL | ABSOLUTE BASOPHIL [2]: 0 CELLS/uL | ABSOLUTE EOSINOPHIL [2]: 24 CELLS/uL | ABSOLUTE LYMPHOCYTE [2]: 7261 CELLS/uL | ABSOLUTE MONOCYTE [2]: 24 CELLS/uL | ABSOLUTE SEGMENTED NEUTROPHIL [2]: 591 CELLS/uL | BASOPHIL [2]: 0% | EOSINOPHIL [2]: 0.33% | ERYTHROCYTE COUNT [2]: 5.57 x10E6/uL | HEMATOCRIT [2]: 35.07% | HEMOGLOBIN [2]: 13.8 G/DL | LEUKOCYTE COUNT [2]: 7.9 x10E3/uL | LYMPHOCYTE [2]: 91.33% | MEAN CORPUSCULAR HEMOGLOBIN [2]: 24.83 pg | MEAN CORPUSCULAR HEMOGLOBIN CONCENTRATION [2]: 39.4 G/DL | MEAN CORPUSCULAR VOLUME [2]: 63.07 fL | MONOCYTE [2]: 0.33% | NEUTROPHIL [2]: 8% | NUCLEATED RED BLOOD CELLS [2]: 0.33 /100WBC | PLATELET COUNT [2]: 1094.67 x10E3/uL | ALANINE AMINOTRANSFERASE [2]: 74.33 u/L | ALBUMIN [2]: 4.13 G/DL | ALKALINE PHOSPHATASE [2]: 448.67 u/L | ASPARTATE AMINOTRANSFERASE [2]: 82 u/L | BLOOD UREA NITROGEN [2]: 11.67 mg/dL | CARBON DIOXIDE [2]: 25 mmol/L | CHLORIDE [2]: 95.67 MEQ/L | CHOLESTEROL [2]: 85 mg/dL | CREATINE PHOSPHOKINASE [2]: 153.33 u/L | CREATININE [2]: 0.32 mg/dL | GLUCOSE [2]: 135.67 mg/dL | LACTATE DEHYDROGENASE [2]: 102 u/L | LIPASE [2]: 9.33 u/L | PHOSPHORUS [2]: 9.53 mg/dL | POTASSIUM [2]: 5.43 MEQ/L | SODIUM [2]: 139.33 MEQ/L | TOTAL BILIRUBIN [2]: 0.13 mg/dL | TOTAL PROTEIN [2]: 5.73 G/DL | URIC ACID [2]: 0.6 mg/dL | ABSOLUTE BASOPHIL [3]: 0 CELLS/uL | ABSOLUTE EOSINOPHIL [3]: 47 CELLS/uL | ABSOLUTE LYMPHOCYTE [3]: 13905 CELLS/uL | ABSOLUTE MONOCYTE [3]: 244.33 CELLS/uL | ABSOLUTE SEGMENTED NEUTROPHIL [3]: 703.67 CELLS/uL | BASOPHIL [3]: 0% | EOSINOPHIL [3]: 0.33% | ERYTHROCYTE COUNT [3]: 6.23 x10E6/uL | HEMATOCRIT [3]: 39.1% | HEMOGLOBIN [3]: 15 G/DL | LEUKOCYTE COUNT [3]: 14.9 x10E3/uL | LYMPHOCYTE [3]: 93.33% | MEAN CORPUSCULAR HEMOGLOBIN [3]: 24.1 pg | MEAN CORPUSCULAR HEMOGLOBIN CONCENTRATION [3]: 38.37 G/DL | MEAN CORPUSCULAR VOLUME [3]: 62.7 fL | MONOCYTE [3]: 1.67% | NEUTROPHIL [3]: 4.67% | NUCLEATED RED BLOOD CELLS [3]: 0 /100WBC | PLATELET COUNT [3]: 1269.33 x10E3/uL | ALANINE AMINOTRANSFERASE [3]: 73.33 u/L | ALBUMIN [3]: 4.13 G/DL | ALKALINE PHOSPHATASE [3]: 474.33 u/L | ASPARTATE AMINOTRANSFERASE [3]: 82 u/L | BLOOD UREA NITROGEN [3]: 13.33 mg/dL | CARBON DIOXIDE [3]: 25.67 mmol/L | CHLORIDE [3]: 101 MEQ/L | CHOLESTEROL [3]: 64.33 mg/dL | CREATINE PHOSPHOKINASE [3]: 344.33 u/L | CREATININE [3]: 0.18 mg/dL | GLUCOSE [3]: 187 mg/dL | LACTATE DEHYDROGENASE [3]: 278 u/L | LIPASE [3]: 10.33 u/L | PHOSPHORUS [3]: 12.03 mg/dL | POTASSIUM [3]: 6.59 MEQ/L | SODIUM [3]: 141.23 MEQ/L | TOTAL BILIRUBIN [3]: 0.2 mg/dL | TOTAL PROTEIN [3]: 5.7 G/DL | URIC ACID [3]: 2.43 mg/dL
